Like-named read-outs stand apart in the source and are kept apart here. Where a SMILES comes first, the peptide text is derived from it. Bridges are numbered along the chain shown (N, C = ends). [ ]: non-standard residue; d: D form. The star is where a group is joined. X2 = CC[C@H](C)CCCCC(=O)*; Dab = NCC[C@H](N)C(=O)O
How the values were obtained:
[1] = test system: A. baumannii ATCC 17978 (SEN) and A. baumannii ATCC BAA-1605 (MDR); test: Frequency-of-resistance (FoR) assay, relative MIC of mutants; type: cell-based, Acinetobacter baumannii; settings: for Relative MIC: Acinetobacter baumannii ATCC 17978 (AB-SEN); for MIC: Acinetobacter baumannii, read-out: MIC of evolved line, Acinetobacter baumannii ATCC 17978 (AB-SEN)
Experimental: (§1) The susceptibility of antibiotics to resistance development was evaluated in two strains of each bacterial species: a multidrug-resistant strain and an antibiotic-sensitive strain of Escherichia coli, Klebsiella pneumoniae, Acinetobacter baumannii, and Pseudomonas aeruginosa. To explore first-step resistance, we previously used a standard protocol for spontaneous frequency-of-resistance analysis (FoR assay) at multiple concentrations of each antibiotic[10],[28],[31]–[33]. […] For all other combinations, approximately 10^10 bacterial cells were exposed to one of each antibiotic on agar plates for two days at concentrations where the given strain is susceptible. We examined resistance levels by contrasting the minimum inhibitory concentration (MICs) of the mutated strains to the original wild-type bacterial strain (i.e., relative MIC).
(§2) To estimate the frequency of spontaneous mutations that confer resistance in a microbial population, we conducted a frequency of resistance (FoR) assay following established protocols[10],[31]–[33]. […] Prior to plating, bacteria were grown overnight in MHB medium at 37 °C and 250 RPM, then centrifuged and washed in MHB. All experiments were performed in triplicate, and plates were incubated at 37 °C for 48 hours. Total colony-forming units (CFUs) were determined by plating appropriate dilutions onto antibiotic-free MHB agar. Resistance frequencies were calculated by dividing the number of resistant colonies by the initial viable cell count. From the plates with the highest antibiotic concentration, ten colonies were selected for MIC determination and whole-genome sequencing.
(§3) A robotic liquid handling system was used to automatically prepare a 11 to 16-step serial dilution in 384-well microtiter plates (Greiner). A final concentration of 5 × 10^5 bacterial cells per mL were inoculated into each well containing 60 µL MHB medium. Bacterial cultures were incubated at 37 °C with continuous shaking (Infors shaker, 900 rpm with 3 mm throw) for 18 hours (2 replicates from each). Cell growth was monitored by measuring the optical density (OD600 values, using Biotek Synergy microplate reader). MIC was defined as the antibiotic concentration of complete growth inhibition (i.e., OD600 < 0.05). Relative MIC was calculated as follows:1 relativeMIC=MICevolved/MICancestor […]
(§4) Supplementary Figure 3. Resistance levels following the frequency of resistance assay across bacterial strains. The level of resistance was measured as the fold change in relative MIC between evolved and ancestral strains. Data are grouped by bacterial strain (A. baumannii (AB), E. coli (EC), K. pneumoniae (KP), and P. aeruginosa (PA)) and categorized as either multidrug-resistant (MDR) or sensitive (SEN). Each data point represents a laboratory evolved line, and boxplots show the median, first and third quartiles, with whiskers indicating the 5th and 95th percentiles. […]
(§5) analysis was performed using two-sided Dunn’s post-hoc test with Benjamini-Hochberg correction for multiple comparisons (**/ * indicates p < 0.01/ 0.05). For detailed information on antibiotic and bacterial species, see Supplementary Table 1. For mode of action groups, refer to Table 1. Source data are provided as a Source Data file.

[2] = test system: K. pneumoniae ATCC 10031 (SEN) and K. pneumoniae ATCC 700603 (MDR); test: microbe, parasite or virus in culture; type: cell-based, Klebsiella pneumoniae; settings: for MIC: across three biological replicates
Experimental: This study focused on multiple bacterial strains, as follows. For the FoR and ALE experiments, 2 strains per species were chosen: E. coli ATCC 25922, K. pneumoniae ATCC 10031, A. baumannii ATCC 17978, and P. aeruginosa ATCC BAA-3107 as sensitive (SEN) strains, and E. coli NCTC13846, K. pneumoniae ATCC 700603, A. baumannii ATCC BAA-1605 and P. aeruginosa LESB58 as multi-drug resistant (MDR) strains. Functional metagenomic screens were performed with E. coli ATCC 25922 and K. pneumoniae ATCC 10031 strains. To determine the dose-kill properties of the different antibiotics, an E. coli strain (ATCC 25922) expressing a yellow fluorescent protein (pZS2R, YFP, CHL^R) and a red fluorescent protein (pZS2R, mCherry, CHL^R) was used.
Unless otherwise indicated, cation-adjusted Mueller-Hinton Broth 2 (MHB, Millipore) medium was used throughout the study, except for SCH79797 (SCH).
A robotic liquid handling system was used to automatically prepare a 11 to 16-step serial dilution in 384-well microtiter plates (Greiner). A final concentration of 5 × 10^5 bacterial cells per mL were inoculated into each well containing 60 µL MHB medium. Bacterial cultures were incubated at 37 °C with continuous shaking (Infors shaker, 900 rpm with 3 mm throw) for 18 hours (2 replicates from each). Cell growth was monitored by measuring the optical density (OD600 values, using Biotek Synergy microplate reader). MIC was defined as the antibiotic concentration of complete growth inhibition (i.e., OD600 < 0.05). Relative MIC was calculated as follows:1 relativeMIC=MICevolved/MICancestor

[3] = test system: K. pneumoniae ATCC 10031 (SEN) and K. pneumoniae ATCC 700603 (MDR); test: Frequency-of-resistance (FoR) assay, relative MIC of mutants; type: cell-based, Klebsiella pneumoniae; settings: for MIC: Klebsiella pneumoniae
Experimental: as §1, §2, §3, §4, §5

[4] = Klebsiella pneumoniae ATCC 10031 (KP-SEN), ancestor strain, sheet fig 2a
[5] = Klebsiella pneumoniae, Klebsiella pneumoniae ATCC 10031 (KP-SEN)
[6] = Klebsiella pneumoniae, Klebsiella pneumoniae ATCC 700603 (KP-MDR)
[7] = Klebsiella pneumoniae ATCC 10031 (KP-SEN), evolved line 1 versus ancestor
[8] = Klebsiella pneumoniae ATCC 10031 (KP-SEN), evolved line 2 versus ancestor
[9] = Klebsiella pneumoniae ATCC 10031 (KP-SEN), evolved line 3 versus ancestor
[10] = read-out: MIC of evolved line, Klebsiella pneumoniae ATCC 10031 (KP-SEN), evolved line 1
[11] = read-out: MIC of evolved line, Klebsiella pneumoniae ATCC 10031 (KP-SEN), evolved line 2
[12] = read-out: MIC of evolved line, Klebsiella pneumoniae ATCC 10031 (KP-SEN), evolved line 3
[13] = Klebsiella pneumoniae ATCC 10031 (KP-SEN), ancestor strain
[14] = Klebsiella pneumoniae ATCC 700603 (KP-MDR), ancestor strain
[15] = Klebsiella pneumoniae ATCC 700603 (KP-MDR), ancestor strain, sheet fig 2a
[16] = Klebsiella pneumoniae ATCC 700603 (KP-MDR), evolved line 1 versus ancestor
[17] = Klebsiella pneumoniae ATCC 700603 (KP-MDR), evolved line 2 versus ancestor
[18] = Klebsiella pneumoniae ATCC 700603 (KP-MDR), evolved line 3 versus ancestor
[19] = read-out: MIC of evolved line, Klebsiella pneumoniae ATCC 700603 (KP-MDR), evolved line 1
[20] = read-out: MIC of evolved line, Klebsiella pneumoniae ATCC 700603 (KP-MDR), evolved line 2
[21] = read-out: MIC of evolved line, Klebsiella pneumoniae ATCC 700603 (KP-MDR), evolved line 3
[22] = Klebsiella pneumoniae ATCC 10031 (KP-SEN)
[23] = Klebsiella pneumoniae ATCC 700603 (KP-MDR)

Row | Compound | Relative MIC ([1]; evolved line 1 versus ancestor) | Relative MIC ([1]; evolved line 2 versus ancestor) | Relative MIC ([1]; evolved line 3 versus ancestor) | MIC ([1]; evolved line 1) [µg/mL] | MIC ([1]; evolved line 2) [µg/mL] | MIC ([1]; evolved line 3) [µg/mL] | MIC of ancestor [2, 4] [µg/mL] | MIC [2, 5] [µg/mL] | MIC [2, 6] [µg/mL] | Relative MIC [3, 7] | Relative MIC [3, 8] | Relative MIC [3, 9] | MIC [3, 10] [µg/mL] | MIC [3, 11] [µg/mL] | MIC [3, 12] [µg/mL] | MIC of ancestor [2, 13] [µg/mL] | MIC of ancestor [2, 15] [µg/mL] | MIC [3, 19] [µg/mL] | MIC [3, 20] [µg/mL] | MIC [2, 22] [µg/mL] | other results
1 | CNC(C)C1CCC(N)C(OC2C(N)CC(N)C(OC3OCC(C)(O)C(NC)C3O)C2O)O1 (stereo not drawn) [Gentamicin] | 32 | 16 | 64 | 16 | 8 | 32 | 0.25 | 0.25 | 16 | 2 | 2 | 32 | 0.5 | 0.5 | 8 |  |  |  |  |  | MIC of ancestor ([2]; KP-SEN, Klebsiella pneumoniae ATCC 10031, ancestor strain): 0.25 µg/mL
2 | CN[C@@H]1[C@@H](O[C@H]2O[C@H](CO)[C@@H](N)[C@H](O)[C@H]2O)OC2C[C@@H](N)[C@@H](O[C@H]3[C@H](O)[C@@H](O)[C@H](N)C[C@@H]3N)OC2[C@@H]1O (stereo partly drawn) [Apramycin] | 8 | 16 | 8 | 32 | 64 | 32 | 2 | 2 | 4 | 8 | 8 | 2 | 16 | 16 |  | 2 | 4 | 8 | 8 |  | MIC of ancestor [2, 14]: 4 µg/mL; Relative MIC [3, 16]: 2; Relative MIC [3, 17]: 2; Relative MIC [3, 18]: 1
3 | Nc1nc(-n2cc(C(=O)O)c(=O)c3cc(F)c(N4CC(O)C4)c(Cl)c32)c(F)cc1F [Delafloxacin] | 8 | 4 | 8 | 0.5 | 0.25 | 0.5 | 0.00195 | 0.00195 | 1 | 32 | 64 | 32 | 0.0625 | 0.125 | 0.0625 | 0.00195 | 1 | 4 | 4 |  | MIC of ancestor [2, 14]: 1 µg/mL; Relative MIC [3, 16]: 4; Relative MIC [3, 17]: 4; Relative MIC [3, 18]: 4; MIC [3, 21]: 4 µg/mL
4 | CN(C)c1cc(CNCC(C)(C)C)c(O)c2c1C[C@H]1C[C@H]3[C@H](N(C)C)C(O)=C(C(N)=O)C(=O)[C@@]3(O)C(O)=C1C2=O [Omadacycline] | 8 | 8 | 8 | 4 | 4 | 4 | 1 | 1 | > 32 | 32 | 16 | 16 | 32 | 16 | 16 |  |  |  |  |  | MIC of ancestor ([2]; Klebsiella pneumoniae ATCC 10031 (KP-SEN), ancestor): 1 µg/mL
5 | POL7306 |  |  |  |  |  |  |  |  |  |  |  |  |  |  |  |  |  |  |  | 1 | MIC [2, 23]: 1 µg/mL
6 | C[C@H]1c2cccc(O)c2C(=O)C2=C(O)[C@]3(O)C(=O)C(C(N)=O)=C(O)[C@@H](N(C)C)[C@@H]3[C@@H](O)[C@@H]21 [Doxycycline] | 1 | 1 | 1 |  |  |  | 0.25 | 0.25 | 32 | 4 | 4 | 2 | 1 | 1 | 0.5 | 0.25 |  |  |  |  | 
7 | CC[C@H](C)CCCCC(=O)N[C@@H](CCN)C(=O)N[C@H](C(=O)N[C@@H](CCN)C(=O)N[C@H]1CCNC(=O)[C@H]([C@@H](C)O)NC(=O)[C@H](CCN)NC(=O)[C@H](CCN)NC(=O)[C@H](CC(C)C)NC(=O)[C@@H](Cc2ccccc2)NC(=O)[C@H](CCN)NC1=O)[C@@H](C)O [Polymyxin B] (X2-[Dab]T[Dab][Dab][Dab][dF]L[Dab][Dab]T; lactam 4-C (inferred); N-terminus assumed) |  |  |  |  |  |  |  |  |  |  |  |  |  |  |  |  |  |  |  | 2 | MIC [2, 23]: 1 µg/mL
8 | C[C@@H]1CN2c3c(cc4c(N5C(=O)OC[C@@H]5C)noc4c3F)CC3(C(=O)NC(=O)NC3=O)[C@H]2[C@H](C)O1 [Zoliflodacin] |  |  |  |  |  |  | 0.125 | 0.125 | > 32 | 32 | 128 | 128 | 4 | 16 | 16 |  |  |  |  |  | MIC of ancestor ([2]; K. pneumoniae ATCC 10031 (KP-SEN), ancestor strain): 0.125 µg/mL
9 | C[C@@H](O)[C@H]1C(=O)N2C(C(=O)O)=C(S[C@@H]3CN[C@H](C(=O)N(C)C)C3)[C@H](C)[C@H]12 [Meropenem] |  |  |  |  |  |  | 0.0312 | 0.0312 | 0.0625 |  |  |  | 0.0156 | 0.0156 | 0.0156 |  | 0.0625 | 2 | 0.0625 |  | MIC of ancestor ([2]; KP-MDR, Klebsiella pneumoniae ATCC 700603, ancestor strain): 0.0625 µg/mL; MIC [3, 21]: 1 µg/mL
10 | Tridecaptin M152-P3 |  |  |  |  |  |  | 4 |  |  |  |  |  |  |  |  |  |  |  |  | 4 | MIC [2, 23]: 8 µg/mL; MIC of ancestor ([2]; ancestor KP-SEN (Klebsiella pneumoniae ATCC 10031)): 4 µg/mL; MIC of evolved line ([3]; Klebsiella pneumoniae ATCC 10031 (KP-SEN), evolved line 1): 16 µg/mL; MIC of evolved line ([3]; Klebsiella pneumoniae ATCC 10031 (KP-SEN), evolved line 2): 8 µg/mL; MIC of evolved line ([3]; Klebsiella pneumoniae ATCC 10031 (KP-SEN), evolved line 3): 16 µg/mL

From PMC11845477, “Exploring the principles behind antibiotics with limited resistance” (Nature Communications, 2025)
